According to patent publication US6692743B1, “Apoptosis of naive human NK cells by crosslinking of their FcγRIIIa molecules with a rat IgG2b (LO-CD2a/BTI-322) or its IgG1 humanized monoclonal antibody” (Universite Catholique de Louvain, priority 1998, dated 2004):
Numbered stars: 1 amine (or outer) side, 2 acyl side, 3 side chain; on linkers, the order of the positions; unused ones are H or OH. Bridge positions count the residues as written; N and C are the ends. Square brackets hold non-standard residues; d marks the D form. Peptide text beside a SMILES is read from it. I, II: the chains in the order shown. Actinocin(9to1) = Cc1c2oc3c(C)ccc(C(=O)[*:1])c3nc-2c(C(=O)[*:2])c(N)c1=O; NMeV = CN[C@H](C(=O)O)C(C)C; Sar = CNCC(=O)O

test system: freshly isolated NK cells; test: Effect of different inhibitors on LO-CD2a mediated NK apoptosis (PI, flow cytometry); format: cell-based, human; settings: 3 h pre-incubation with inhibitor, then 3 hours with LO-CD2a; 5 donors
Protocol: Effect of different inhibitors on LO-CD2a mediated NK apoptosis. 100 ul of freshly isolated NK cells (10^6/ml) were pre-incubated for 3 h at 37° C. in a 96 well plate with EGTA (20 mM), staurosporin (250 nM), quinacrine ([…]), cyclosporin A ([…]), FK506 ([…]), wortmannin (500 ng/ml), concanamycin A ([…]), cytochalasine D (1 mg/ml), actinomycin) (500 ng/ml final concentration), NOK-1 (25 mg/ml) or medium alone. After incubation for 3 hours with LO-CD2a ([…] final concentration) propidium iodide was added and cell mortality was analysed by flow cytometry.

| Compound | inhibition of LO-CD2a mediated NK apoptosis (in words) |
| --- | --- |
| C/C=C/[C@H]1O[C@@](O)([C@@H](C)[C@H](O)[C@H](C)[C@H]2OC(=O)/C(OC)=C/C(C)=C/[C@@H](C)[C@@H](O)[C@@H](CC)[C@@H](O)[C@H](C)C/C(C)=C/C=C/[C@@H]2OC)C[C@@H](O[C@H]2C[C@@H](O)[C@H](OC(N)=O)[C@@H](C)O2)[C@@H]1C [concanamycin A, Concanamycin A] | failed to inhibit apoptosis |
| O=C(O)CN(CCOCCOCCN(CC(=O)O)CC(=O)O)CC(=O)O [EGTA] | completely inhibited |
| CCN(CC)CCCC(C)Nc1c2ccc(Cl)cc2nc2ccc(OC)cc12 (centres unmarked) [quinacrine, Quinacrine] | completely inhibited |
| Cc1c2oc3c(C)ccc(C(=O)N[C@@H]4C(=O)N[C@H](C(C)C)C(=O)N5CCC[C@H]5C(=O)N(C)CC(=O)N(C)[C@@H](C(C)C)C(=O)O[C@@H]4C)c3nc-2c(C(=O)N[C@@H]2C(=O)N[C@H](C(C)C)C(=O)N3CCC[C@H]3C(=O)N(C)CC(=O)N(C)[C@@H](C(C)C)C(=O)O[C@@H]2C)c(N)c1=O [actinomycin D, Actinomycin D] (I: T[dV]P[Sar][NMeV] / II: T[dV]P[Sar][NMeV]; ester I:1-I:C, II:1-II:C; linker I:N-II:N via Actinocin(9to1)) | did not have any blocking effect |
| Cyclosporin A | partially inhibited |
